Data: the supplement of paper PMC11208160

experiment: recombinant UMI read abundance after kanamycin selection (control-corrected) (log10(CPM+1)); higher = more efficient recombination; extreme values may be limits of the assay; sequences stand for … in AGTGCAGAGAAAATCGGCCAGTTTTCTCTGCCTGCAGTCCGCATGCCGTGGGACCCCTTGGGTTCTAACCTGTTGCCTAGATTTATGCAGCGGACTGCCTTTCTCCCAAAGTGATAAACCGG…AGGTTGGTTTCACT; site = the 11-nt donor
How it was run: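 In Escherichia coli, a pool of donor and donor-binding-loop pairs, each with a 12-nt UMI, was tested for the IS621 bridge recombinase. Plating was on IPTG (0.07 mM) plus kanamycin, or without selection, in two replicates. Recombinant UMIs were amplified by PCR across the donor–target junction and sequenced, and counts were reported as log10(CPM+1) after averaging and control-derived scaling.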
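Note: IS621 bridge recombinase in Escherichia coli cells against a fixed T5 target plasmid.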

Row | Sequence | recombinant UMI read abundance (log10)
1 | TAATTCCCATGGACCGGTTTTCCCGGTAATCCGTATTTGCT (site TAATTCCCTAG) | 1.65
2 | TACACCGCATGGACCGGTTTTCCCGGTAATCCGTATTTGAG (site TACACCGCTCT) | 0.702
3 | TACACCGCATGGACCGGTTTTCCCGGTAATCCGTATTTGCG (site TACACCGCTCG) | 0.0108
4 | TACACCGCATGGACCGGTTTTCCCGGTAATCCGTATTTGCG (site TCCACCGCTCG) | 0
5 | TACACCGCATGGACCGGTTTTCCCGGTAATCCGTATTTGCG (site TGCACCGCTCG) | 0.0236
6 | TACACCGCATGGACCGGTTTTCCCGGTAATCCGTATTTGCG (site TTCACCGCTCG) | 0.00838
7 | TACAGCTCATGGACCGGTTTTCCCGGTAATCCGTATTTGGA (site TACAGCTCTTC) | 0.841
8 | TACAGTCCATGGACCGGTTTTCCCGGTAATCCGTATTTGTA (site TAAAGTCCTTA) | 0
9 | TACAGTCCATGGACCGGTTTTCCCGGTAATCCGTATTTGTA (site TACAGTCCTTA) | 0.128
10 | TACAGTCCATGGACCGGTTTTCCCGGTAATCCGTATTTGTA (site TAGAGTCCTTA) | 0.198
11 | TACAGTCCATGGACCGGTTTTCCCGGTAATCCGTATTTGTA (site TATAGTCCTTA) | 0.00977
12 | TACAGTTCATGGACCGGTTTTCCCGGTAATCCGTATTTGAG (site TACAGTTCTCT) | 1.31
13 | TACATAACATGGACCGGTTTTCCCGGTAATCCGTATTTGCA (site TACATAACTTG) | 0.258
14 | TACATATCATGGACCGGTTTTCCCGGTAATCCGTATTTGGG (site TACATATCTCC) | 0
15 | TACATGACATGGACCGGTTTTCCCGGTAATCCGTATTTGGT (site TACATGACTAC) | 0.581
16 | TACCACCCATGGACCGGTTTTCCCGGTAATCCGTATTTGAC (site TACCACCCTGT) | 0
17 | TACCCAGCATGGACCGGTTTTCCCGGTAATCCGTATTTGCT (site TACCCAGCTAG) | 0.0305
18 | TACCCATCATGGACCGGTTTTCCCGGTAATCCGTATTTGAG (site TACCCATCTCT) | 0.374
19 | TACCCCTCATGGACCGGTTTTCCCGGTAATCCGTATTTGGC (site TACCCCTCTGC) | 3.09
20 | TACCCGTCATGGACCGGTTTTCCCGGTAATCCGTATTTGCT (site TACCCGTCTAG) | 2.07
21 | TACCGTCCATGGACCGGTTTTCCCGGTAATCCGTATTTGAT (site AACCGTCCTAT) | 0.0188
22 | TACCGTCCATGGACCGGTTTTCCCGGTAATCCGTATTTGAT (site CACCGTCCTAT) | 0.00852
23 | TACCGTCCATGGACCGGTTTTCCCGGTAATCCGTATTTGAT (site GACCGTCCTAT) | 0.00523
24 | TACCGTCCATGGACCGGTTTTCCCGGTAATCCGTATTTGAT (site TACCGTCCTAT) | 0.00444
25 | TACCTACCATGGACCGGTTTTCCCGGTAATCCGTATTTGAG (site TACCTACCTCT) | 0.0115

Row | Sequence | recombinant UMI read abundance (log10)
26 | TACCTGACATGGACCGGTTTTCCCGGTAATCCGTATTTGGC (site TACCTGACTGC) | 0
27 | TACGAATCATGGACCGGTTTTCCCGGTAATCCGTATTTGCG (site TAAGAATCTCG) | 0
28 | TACGAATCATGGACCGGTTTTCCCGGTAATCCGTATTTGCG (site TACGAATCTCG) | 2.16
29 | TACGAATCATGGACCGGTTTTCCCGGTAATCCGTATTTGCG (site TAGGAATCTCG) | 0.321
30 | TACGAATCATGGACCGGTTTTCCCGGTAATCCGTATTTGCG (site TATGAATCTCG) | 2.1
31 | TACGATACATGGACCGGTTTTCCCGGTAATCCGTATTTGGA (site TACGATACTTC) | 0.806
32 | TACGCAACATGGACCGGTTTTCCCGGTAATCCGTATTTGAC (site TACGCAACTGT) | 2
33 | TACGGAACATGGACCGGTTTTCCCGGTAATCCGTATTTGCA (site TACGGAACTTG) | 1.47
34 | TACGTCGCATGGACCGGTTTTCCCGGTAATCCGTATTTGGA (site TACGTCGCTTC) | 1.08
35 | TACTGAGCATGGACCGGTTTTCCCGGTAATCCGTATTTGGG (site TAATGAGCTCC) | 0.0256
36 | TACTGAGCATGGACCGGTTTTCCCGGTAATCCGTATTTGGG (site TACTGAGCTCC) | 0.356
37 | TACTGAGCATGGACCGGTTTTCCCGGTAATCCGTATTTGGG (site TAGTGAGCTCC) | 0.0147
38 | TACTGAGCATGGACCGGTTTTCCCGGTAATCCGTATTTGGG (site TATTGAGCTCC) | 0
39 | TACTGCCCATGGACCGGTTTTCCCGGTAATCCGTATTTGGA (site TACTGCCCTTC) | 0.00999
40 | TACTGGGCATGGACCGGTTTTCCCGGTAATCCGTATTTGAA (site TACTGGGCTTT) | 0.637
41 | TACTTGACATGGACCGGTTTTCCCGGTAATCCGTATTTGCA (site TACTTGACTAG) | 0
42 | TACTTGACATGGACCGGTTTTCCCGGTAATCCGTATTTGCA (site TACTTGACTCG) | 0.0381
43 | TACTTGACATGGACCGGTTTTCCCGGTAATCCGTATTTGCA (site TACTTGACTGG) | 0
44 | TACTTGACATGGACCGGTTTTCCCGGTAATCCGTATTTGCA (site TACTTGACTTG) | 0.591
45 | TACTTGACATGGACCGGTTTTCCCGGTAATCCGTATTTGCT (site AACTTGACTAG) | 0
46 | TACTTGACATGGACCGGTTTTCCCGGTAATCCGTATTTGCT (site CACTTGACTAG) | 0.342
47 | TACTTGACATGGACCGGTTTTCCCGGTAATCCGTATTTGCT (site GACTTGACTAG) | 0.00311
48 | TACTTGACATGGACCGGTTTTCCCGGTAATCCGTATTTGCT (site TAATTGACTAG) | 0.201
49 | TACTTGACATGGACCGGTTTTCCCGGTAATCCGTATTTGCT (site TACATGACTAG) | 0.0307
50 | TACTTGACATGGACCGGTTTTCCCGGTAATCCGTATTTGCT (site TACCTGACTAG) | 0.89

Row | Sequence | recombinant UMI read abundance (log10)
51 | TACTTGACATGGACCGGTTTTCCCGGTAATCCGTATTTGCT (site TACGTGACTAG) | 0.16
52 | TACTTGACATGGACCGGTTTTCCCGGTAATCCGTATTTGCT (site TACTAGACTAG) | 0.43
53 | TACTTGACATGGACCGGTTTTCCCGGTAATCCGTATTTGCT (site TACTCGACTAG) | 0.277
54 | TACTTGACATGGACCGGTTTTCCCGGTAATCCGTATTTGCT (site TACTGGACTAG) | 0.46
55 | TACTTGACATGGACCGGTTTTCCCGGTAATCCGTATTTGCT (site TACTTAACTAG) | 0
56 | TACTTGACATGGACCGGTTTTCCCGGTAATCCGTATTTGCT (site TACTTCACTAG) | 0.00555
57 | TACTTGACATGGACCGGTTTTCCCGGTAATCCGTATTTGCT (site TACTTGACTAA) | 0.00336
58 | TACTTGACATGGACCGGTTTTCCCGGTAATCCGTATTTGCT (site TACTTGACTAC) | 0.0348
59 | TACTTGACATGGACCGGTTTTCCCGGTAATCCGTATTTGCT (site TACTTGACTAG) | 1.12
60 | TACTTGACATGGACCGGTTTTCCCGGTAATCCGTATTTGCT (site TACTTGACTAT) | 0.00796
61 | TACTTGACATGGACCGGTTTTCCCGGTAATCCGTATTTGCT (site TACTTGACTCG) | 0
62 | TACTTGACATGGACCGGTTTTCCCGGTAATCCGTATTTGCT (site TACTTGACTGG) | 0
63 | TACTTGACATGGACCGGTTTTCCCGGTAATCCGTATTTGCT (site TACTTGACTTG) | 0.00876
64 | TACTTGACATGGACCGGTTTTCCCGGTAATCCGTATTTGCT (site TACTTGCCTAG) | 0
65 | TACTTGACATGGACCGGTTTTCCCGGTAATCCGTATTTGCT (site TACTTGGCTAG) | 0.00865
66 | TACTTGACATGGACCGGTTTTCCCGGTAATCCGTATTTGCT (site TACTTGTCTAG) | 0.0219
67 | TACTTGACATGGACCGGTTTTCCCGGTAATCCGTATTTGCT (site TACTTTACTAG) | 0
68 | TACTTGACATGGACCGGTTTTCCCGGTAATCCGTATTTGCT (site TAGTTGACTAG) | 0.00537
69 | TACTTGACATGGACCGGTTTTCCCGGTAATCCGTATTTGCT (site TATTTGACTAG) | 0.0574
70 | TACTTGACATGGACCGGTTTTCCCGGTAATCCGTATTTGCT (site TCCTTGACTAG) | 0.255
71 | TACTTGACATGGACCGGTTTTCCCGGTAATCCGTATTTGCT (site TGCTTGACTAG) | 0.0612
72 | TACTTGACATGGACCGGTTTTCCCGGTAATCCGTATTTGCT (site TTCTTGACTAG) | 0
73 | TACTTGCCATGGACCGGTTTTCCCGGTAATCCGTATTTGCT (site TACTTGACTAG) | 0.00966
74 | TACTTGCCATGGACCGGTTTTCCCGGTAATCCGTATTTGCT (site TACTTGCCTAG) | 0.597
75 | TACTTGCCATGGACCGGTTTTCCCGGTAATCCGTATTTGCT (site TACTTGGCTAG) | 0.00743
